Data from patent publication US8735414B2 (priority 2009, dated 2014).
pIC50: −log10 of the molar value.

What was measured:
[1] = tested on: bicistronic HCV replicon (replicon RNA, GenBank Accession No. AJ242654); assay: HCV Replicon Assay; type: cell-based; settings: Hepatitis C virus, 72 h, read-out: Replicon IC50

SMILES	pIC50 [1]	melting point
CC(C)NS(=O)(=O)c1cnc(-c2c(C#N)c3ccc(C4CC4)cc3n2CC2CC2)nc1 [compound 124, 2-[3-cyano-6-cyclopropyl-1-(cyclopropylmethyl)-1H-indol-2-yl]-N-(propan-2-yl)pyrimidine-5-sulfonamide]	> 6.30	169 to 174 °C
C[C@H](NS(=O)(=O)c1cnc(-c2c(C#N)c3ccc(F)cc3n2CC2CC2)nc1)C1CC1 [compound 498, 2-[3-cyano-1-(cyclopropylmethyl)-6-fluoro-1H-indol-2-yl]-N-[(1S)-1-cyclopropylethyl]pyrimidine-5-sulfonamide]	5.70 to 6.30	198 to 199 °C
Cc1ccc2c(C#N)c(-c3ccc(S(=O)(=O)NC(C)(C)C(F)(F)F)cn3)n(C3CCCC3)c2c1F [compound 579, 6-(3-cyano-1-cyclopentyl-7-fluoro-6-methyl-1H-indol-2-yl)-N-(1,1,1-trifluoro-2-methylpropan-2-yl)pyridine-3-sulfonamide]	> 6.30	203 to 205 °C
N#Cc1c(-c2ccc(S(=O)(=O)NC(CF)CF)cn2)n(C2CC2)c2cc(OC(F)F)ccc12 [compound 42, 6-[3-cyano-1-cyclopropyl-6-(difluoromethoxy)-1H-indol-2-yl]-N-(1,3-difluoropropan-2-yl)pyridine-3-sulfonamide]	> 6.30	219 to 220 °C
N#Cc1c(-c2ncc(S(=O)(=O)NC(CF)CF)cn2)n(C2CCCC2)c2cc(Cl)ccc12 [compound 157, 2-(6-chloro-3-cyano-1-cyclopentyl-1H-indol-2-yl)-N-(1,3-difluoropropan-2-yl)pyrimidine-5-sulfonamide]	> 6.30	233 to 238 °C
CC(C)n1c(-c2ccc(S(=O)(=O)N[C@@H](C)C(F)(F)F)cn2)c(C#N)c2ccc(OC(F)F)cc21 [compound 359, 6-[3-cyano-6-(difluoromethoxy)-1-(propan-2-yl)-1H-indol-2-yl]-N-[(2S)-1,1,1-trifluoropropan-2-yl]pyridine-3-sulfonamide]	> 6.30	163 to 166 °C
NC(=O)c1c(-c2ccc(S(=O)(=O)Nc3ccccc3)cn2)n(C2CCC2)c2cc(OC(F)F)c(F)cc12 [compound 798, 1-cyclobutyl-6-(difluoromethoxy)-5-fluoro-2-[5-(phenylsulfamoyl)pyridin-2-yl]-1H-indole-3-carboxamide]	5.70 to 6.30	204 to 206 °C
COc1ccc2c(C#N)c(-c3ncc(S(=O)(=O)N[C@@H](C)C(F)(F)F)cn3)n(C3CCC3)c2c1 [compound 405, 2-(3-cyano-1-cyclobutyl-6-methoxy-1H-indol-2-yl)-N-[(2S)-1,1,1-trifluoropropan-2-yl]pyrimidine-5-sulfonamide]	> 6.30	254 to 255 °C
Cc1ccc2c(C#N)c(-c3ccc(S(=O)(=O)N[C@@H](C)C(F)(F)F)cn3)n(C(C)C)c2c1 [compound 355, 6-[3-cyano-6-methyl-1-(propan-2-yl)-1H-indol-2-yl]-N-[(2S)-1,1,1-trifluoropropan-2-yl]pyridine-3-sulfonamide]	> 6.30	211 to 216 °C
Cc1c(F)cc2c(c1F)c(C#N)c(-c1ccc(S(=O)(=O)NC(CF)CF)cn1)n2C1CCC1 [compound 556, 6-(3-cyano-1-cyclobutyl-4,6-difluoro-5-methyl-1H-indol-2-yl)-N-(1,3-difluoropropan-2-yl)pyridine-3-sulfonamide]	> 6.30	207 to 212 °C
CC(C)n1c(-c2ncc(S(=O)(=O)N[C@@H](C)C(F)(F)F)cn2)c(C#N)c2ccc(Cl)cc21 [compound 418, 2-[6-chloro-3-cyano-1-(propan-2-yl)-1H-indol-2-yl]-N-[(2S)-1,1,1-trifluoropropan-2-yl]pyrimidine-5-sulfonamide]	5.70 to 6.30	241 to 248 °C
Cc1cc2c(C#N)c(-c3ccc(S(=O)(=O)N[C@@H](C)C(F)(F)F)cn3)n(-c3cnccn3)c2cc1F [compound 919, 6-[3-cyano-6-fluoro-5-methyl-1-(pyrazin-2-yl)-1H-indol-2-yl]-N-[(2S)-1,1,1-trifluoropropan-2-yl]pyridine-3-sulfonamide]	> 6.30	233 to 238 °C
CC(C)NS(=O)(=O)c1cnc(-c2c(C#N)c3ccc(Cl)cc3n2C2CCC2)nc1 [compound 115, 2-(6-chloro-3-cyano-1-cyclobutyl-1H-indol-2-yl)-N-(propan-2-yl)pyrimidine-5-sulfonamide]	> 6.30	228 to 229 °C
Cc1ccc2c(C#N)c(-c3ncc(S(=O)(=O)N[C@@H](C)C4CC4)cn3)n(C3CCCC3)c2c1 [compound 204, 2-(3-cyano-1-cyclopentyl-6-methyl-1H-indol-2-yl)-N-[(1S)-1-cyclopropylethyl]pyrimidine-5-sulfonamide]	> 6.30	180 to 182 °C
Cc1cc2c(cc1F)c(C#N)c(-c1ccc(S(=O)(=O)N[C@@H](C)C(F)(F)F)cn1)n2C1CCC1 [compound 340, 6-(3-cyano-1-cyclobutyl-5-fluoro-6-methyl-1H-indol-2-yl)-N-[(2S)-1,1,1-trifluoropropan-2-yl]pyridine-3-sulfonamide]	> 6.30	218 to 219 °C
CCc1cc2c(cc1F)c(C(N)=O)c(-c1ccc(S(=O)(=O)N[C@@H](C)C(F)(F)F)cn1)n2-c1ncccn1 [compound 849, 6-ethyl-5-fluoro-1-(pyrimidin-2-yl)-2-(5-{[(2S)-1,1,1-trifluoropropan-2-yl]sulfamoyl}pyridin-2-yl)-1H-indole-3-carboxamide]	> 6.30	235 to 236 °C
C[C@H](NS(=O)(=O)c1ccc(-c2c(C#N)c3cc(F)c(OC(F)F)cc3n2CCO)nc1)C(F)(F)F [compound 940, 6-[3-cyano-6-(difluoromethoxy)-5-fluoro-1-(2-hydroxyethyl)-1H-indol-2-yl]-N-[(2S)-1,1,1-trifluoropropan-2-yl]pyridine-3-sulfonamide]	5.70 to 6.30	203 to 208 °C
N#Cc1c(-c2ncc(S(=O)(=O)NC(CF)CF)cn2)n(C2CCC2)c2ccc(CF)cc12 [compound 377, 2-[3-cyano-1-cyclobutyl-5-(fluoromethyl)-1H-indol-2-yl]-N-(1,3-difluoropropan-2-yl)pyrimidine-5-sulfonamide]	> 6.30	131 to 134 °C
Cc1cc2c(cc1F)c(C(N)=O)c(-c1ccc(S(=O)(=O)N[C@@H](C)C(F)(F)F)cn1)n2C1CCOCC1 [compound 769, 5-fluoro-6-methyl-1-(tetrahydro-2H-pyran-4-yl)-2-(5-{[(2S)-1,1,1-trifluoropropan-2-yl]sulfamoyl}pyridin-2-yl)-1H-indole-3-carboxamide]	> 6.30	261 to 264 °C
N#Cc1c(-c2ncc(S(=O)(=O)NC(CF)CF)cn2)n(CC2CC2)c2cc(OC(F)F)ccc12 [compound 136, 2-[3-cyano-1-(cyclopropylmethyl)-6-(difluoromethoxy)-1H-indol-2-yl]-N-(1,3-difluoropropan-2-yl)pyrimidine-5-sulfonamide]	> 6.30	207 to 209 °C
